± gives the expanded uncertainty stated by the source.
Experiment: xn = mol fraction of the nth substance listed
Conditions: 101 kPa, Liquid; for speed of sound: Sing-around technique in a fixed-path interferometer

Cc1ccccc1C [1,2-dimethylbenzene] + COC(C)(C)C
Conditions	mass density, 305.65 K [kg/m3]	mass density, 308.15 K [kg/m3]	mass density, 310.65 K [kg/m3]	mass density, 313.15 K [kg/m3]	speed of sound, 308.15 K [m/s]	speed of sound, 310.65 K [m/s]	speed of sound, 313.15 K [m/s]	speed of sound, 315.65 K [m/s]
x2 = 0	868.65 ± 0.37	866.538 ± 0.37	864.422 ± 0.38	862.302 ± 0.38	1300.7 ± 2.2	1290.6 ± 2.2	1280.6 ± 2.2	1270.5 ± 2.2
x2 = 0.052	861.853 ± 0.4	859.718 ± 0.4	857.577 ± 0.41	855.433 ± 0.41	1293.5 ± 2.2	1283.5 ± 2.2	1273.4 ± 2.2	1263.4 ± 2.2
x2 = 0.101	855.807 ± 0.41	853.654 ± 0.41	851.495 ± 0.41	849.333 ± 0.42	1278.9 ± 2.2	1268.9 ± 2.2	1258.9 ± 2.2	1248.9 ± 2.2
x2 = 0.203	842.365 ± 0.43	840.166 ± 0.43	837.963 ± 0.43	835.755 ± 0.44	1249.1 ± 2.2	1238.9 ± 2.2	1228.7 ± 2.2	1218.5 ± 2.2
x2 = 0.303	829.01 ± 0.45	826.764 ± 0.45	824.515 ± 0.45	822.257 ± 0.46	1218.2 ± 2.2	1207.9 ± 2.2	1197.6 ± 2.2	1187.3 ± 2.2
x2 = 0.401	815.857 ± 0.47	813.564 ± 0.47	811.267 ± 0.47	808.961 ± 0.48	1188.5 ± 2.2	1178 ± 2.2	1167.5 ± 2.2	1157.1 ± 2.2
x2 = 0.499	801.959 ± 0.49	799.615 ± 0.49	797.264 ± 0.5	794.906 ± 0.5	1157 ± 2.2	1146.5 ± 2.2	1135.9 ± 2.2	–
x2 = 0.604	786.901 ± 0.51	784.495 ± 0.51	782.083 ± 0.52	779.664 ± 0.52	1124.5 ± 2.2	1113.6 ± 2.2	1102.8 ± 2.2	–
x2 = 0.707	771.779 ± 0.53	769.312 ± 0.54	766.837 ± 0.54	764.349 ± 0.54	1089.9 ± 2.2	1078.8 ± 2.2	1067.7 ± 2.2	–
x2 = 0.8	757.862 ± 0.55	755.336 ± 0.56	752.799 ± 0.56	750.25 ± 0.57	1058 ± 2.2	1046.9 ± 2.2	1035.9 ± 2.2	–
x2 = 0.9	742.391 ± 0.58	739.788 ± 0.58	737.174 ± 0.58	734.547 ± 0.59	1026.9 ± 2.2	1015.4 ± 2.2	1003.8 ± 2.2	–
x2 = 0.95	734.452 ± 0.59	731.817 ± 0.59	729.169 ± 0.6	726.508 ± 0.6	1007.3 ± 2.2	996.05 ± 2.2	984.72 ± 2.2	–

Source: the NIST ThermoML archive (doi:10.1016/j.fluid.2008.03.004)
